Test results as given in US20050107616A1, “Alpha-ketoamide derivatives as cathepsin k inhibitors” (priority 2001, published 2005).
Like-named read-outs stand apart in the source and are kept apart here.

How the values were obtained:
[1] = target: human cathepsin S (Homo sapiens, UniProt P25774); assay: Cathepsin S inhibition assay, fluorogenic substrate Cbz-Val-Val-Arg-AMC; type: biochemical; settings: Table 2; human recombinant enzyme, pH 5.5, 30° C., 10 μM substrate; read-out: hCat S Ki
Protocol: All assays for cathepsin K were carried out with human and rat recombinant enzyme. Assays for cathepsins S Et V were also carried out with human recombinant enzyme. Assays for human cathepsins B. H. and L were carried out with enzyme, purchased from Athens Research and Technology, Inc., prepared from human liver tissue. Standard assay conditions for the determination of kinetic constants used a fluorogenic peptide substrate, typically (5S,8S)-13-amino-5-benzyl-13-imino-3-methylene-N-(4methyl-2-oxo-2H-chromen-7-yl)-6-oxo-1-phenyl-2-oxa-4,7,12-triazatridecane-8-carboxamide (Cbz-Phe-Arg-AMC), and were determined in 100 mM sodium acetate at pH 5.5 containing 10 mM dithiothreitol and 120 mM sodium chloride. A stock substrate solution of Cbz-Phe-Arg-AMC was prepared at a concentration of 50 mM in dimethyl sulfoxide. This substrate was diluted into the assay for a final substrate concentration of 10 μM in the rat cathepsin K, human cathepsin K, and human cathepsin B assays; a final substrate concentration of 5 μM in the human cathepsin L assay; and a final substrate concentration of 2 μM in the human cathepsin V assay.
A stock substrate solution of benzyl (1S)-1-{[((1S)-1-{[((1S)-4-{[amino(imino)methyl]amino}-1-{[(4-methyl-2-oxo-2H-chromen-7-yl)amino]carbonyl}butyl)amino]carbonyl}-2-methylpropyl)amino]carbonyl}-2-methylpropylcarbamate (Cbz-Val-Val-Arg-AMC) was prepared at a concentration of 10 mM in dimethyl sulfoxide. This substrate was diluted into the assay for a final substrate concentration of 10 μM in the human cathepsin S assay.
All assays contained 10% dimethyl sulfoxide. […] All assays were conducted at 30° C. Product fluorescence (excitation at 360 nm; emission at 440 nm, (except cathepsin H which used excitation at 340 nm; emission at 420 nm)) was monitored with a PerSeptive Biosystems Cytofluor II fluorescence plate reader. Product progress curves were generated over 2.3 h monitoring the formation of 7-amino-4-methylcoumarin product (or β-naphthalamide for cathepsin H).
Potential inhibitors were evaluated using the progress curve method. Assays were carried out in the presence of variable concentrations of test compound. Reactions were initiated by addition of buffered solutions of inhibitor and substrate to enzyme. Data analysis was conducted according to one of two procedures depending on the appearance of the progress curves in the presence of inhibitors. For those compounds whose progress curves were linear, the enzymatic activity (RATE) was plotted against the concentration of test compound, including inhibitor concentration of zero ([I]=0), and the IC50 determined from a fit of equation 1 to the data, RATE=Vmax/(1+([I]/IC50)) (1) where Vmax is the best fit estimate of the maximal enzymatic activity. Ki values were calculated from IC50 values using equation 2 assuming a competitive model. [formula]

[2] = target: T1, human cathepsin K (Homo sapiens, UniProt P43235); assay: Cathepsin K inhibition assay, fluorogenic substrate Cbz-Phe-Arg-AMC, progress curve method; type: biochemical; settings: human recombinant enzyme, pH 5.5, 30° C., 10 μM substrate, read-out: hCat K Ki
T1 construct: The proform of cathepsin K was converted to mature cathepsin K by brief exposure to pH 4; made in house; host or cells: baculovirus; Trichoplusia ni High Five cells (virus raised in Sf-9)
T1 sequence (P43235 115-329): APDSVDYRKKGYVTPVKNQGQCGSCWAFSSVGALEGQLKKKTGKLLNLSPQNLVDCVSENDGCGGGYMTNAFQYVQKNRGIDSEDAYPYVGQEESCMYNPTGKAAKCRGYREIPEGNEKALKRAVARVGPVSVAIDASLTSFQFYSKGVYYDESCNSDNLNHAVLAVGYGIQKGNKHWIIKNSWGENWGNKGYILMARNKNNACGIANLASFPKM
Procedure, shortened: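 Recombinant human cathepsin K from insect cells, made mature by pH 4/L-cysteine activation, was assayed with 10 μM Cbz-Phe-Arg-AMC in 10% DMSO at 30° C. […]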

Chain of human cathepsin S (P25774 115-331): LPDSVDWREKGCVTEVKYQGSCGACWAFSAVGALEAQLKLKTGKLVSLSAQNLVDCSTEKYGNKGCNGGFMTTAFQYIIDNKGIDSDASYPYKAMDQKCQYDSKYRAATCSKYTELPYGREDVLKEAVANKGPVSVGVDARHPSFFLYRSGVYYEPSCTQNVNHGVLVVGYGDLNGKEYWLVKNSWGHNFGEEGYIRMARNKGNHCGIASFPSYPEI

Row | SMILES | Ki [1] [nM] | Ki ([2]; Table 1) [nM] | Ki ([2]; Table 2) [nM]
1 | CCCC[C@H](NC(=O)O[C@H](Cn1cnc2cc(Cl)c(Cl)cc21)C(C)(C)C)C(=O)C(=O)Nc1ccn[nH]1 [Example 37, (1S)-1-[(5,6-dichloro-1H-benzimidazol-1-yl)methyl]-2,2-dimethylpropyl(1S)-1-[oxo(1H-pyrazol-5-ylamino)acetyl]pentylcarbamate] | 0.01 to 1 | 0.01 to 1 | 0.01 to 1
2 | CCCC[C@H](NC(=O)O[C@H](Cn1cnc(-c2ccc(C(F)(F)F)cc2)c1)C(C)(C)C)C(=O)C(=O)Nc1ccnn1C1CCC1 [Example 35, (1S)-2,2-dimethyl-1-({4-[4-(trifluoromethyl)phenyl]-1H-imidazol-1-yl}methyl)propyl(1S)-1-[[(1-cyclobutyl-1H-pyrazol-5-yl)amino](oxo)acetyl]pentylcarbamate] | 1 to 100 | 1 to 100 | 1 to 100
3 | CCCC[C@H](NC(=O)O[C@H](Cc1nnc(-c2ccc(F)cc2)o1)C(C)(C)C)C(=O)C(=O)Nc1ccnn1C (stereo in doubt) [Example 22, (1R)-1-{[5-(4-fluorophenyl)-1,3,4-oxadiazol-2-yl]methyl}-2,2-dimethylpropyl(1S)-1-[[(1-methyl-1H-pyrazol-5-yl)amino](oxo)acetyl]pentyl carbamate] | 100 to 10000 | 1 to 100 | 1 to 100

Now from value to compound:

Row | Ki [1] [nM] | Ki ([2]; Table 1) [nM] | Ki ([2]; Table 2) [nM] | SMILES
4 | 0.01 to 1 | 0.01 to 1 | 0.01 to 1 | CCCC[C@H](NC(=O)O[C@H](Cn1cnc(-c2ccc(C(F)(F)F)cc2)c1)C(C)(C)C)C(=O)C(=O)Nc1ccn[nH]1 [Example 7, (1S)-2,2-dimethyl-1-({4-[4-(trifluoromethyl)phenyl]-1H-imidazol-1-yl}methyl)propyl(1S)-1-[oxo(1H-pyrazol-5-ylamino)acetyl]pentylcarbamate]
5 | 1 to 100 | 0.01 to 1 | 0.01 to 1 | CCCC[C@H](NC(=O)O[C@H](c1nnc(-c2ccc(C(F)(F)F)cc2)o1)C(C)(C)C)C(=O)C(=O)NN1CCOC1=O [Example 39, (1S)-2,2-dimethyl-1-{5-[4-(trifluoromethyl)phenyl]-1,3,4-oxadiazol-2-yl}propyl(1S)-1-{oxo[(2-oxo-1,3-oxazolidin-3-yl)amino]acetyl}pentylcarbamate]
6 | 1 to 100 | 0.01 to 1 | 0.01 to 1 | CCCC[C@H](NC(=O)O[C@H](c1nnc(-c2ccc(C(F)(F)F)cc2)o1)C(C)(C)C)C(=O)C(=O)Nc1ccn[nH]1 [Example 38, (1S)-2,2-dimethyl-1-{5-[4-(trifluoromethyl)phenyl]-1,3,4-oxadiazol-2-yl}propyl(1S)-1-[oxo(1H-pyrazol-5-ylamino)acetyl]pentylcarbamate]
7 | 0.01 to 1 | 0.01 to 1 | 0.01 to 1 | CCCC[C@H](NC(=O)O[C@H](Cn1ccc(-c2ccc(C(F)(F)F)cc2)n1)C(C)(C)C)C(=O)C(=O)Nc1ccn[nH]1 [Example 1]
